Assay results published in patent US10919889B2, “Chiral heterocyclic compound with hedgehog pathway antagonist activity, method and use thereof” (SUZHOU KINTOR PHARMACEUTICALS, INC., priority 2016, dated 2021).
“Also recorded” adds a separate entry of the source. Like-named read-outs stand apart in the source and are kept apart here.

Tests used:
CYP1A2 = biological target: T1, CYP1A2 (Homo sapiens, UniProt P05177); assay: CYP liver enzyme inhibition experiment, CYP-1A2; format: in vitro ADME; conditions: human liver microsomes, pH 7.4, probe phenacetin, test compound 10 μM, HLM, phenacetin 30 μM, read-out: CYP-1A2 Inhibitory rate (%)
T1 construct: containing HLM (0.2 mg/mL), phosphate buffer (100 mM, pH 7.4); from tissue; host or cells: liver microsomes (HLM)
T1 sequence (P05177 1-516): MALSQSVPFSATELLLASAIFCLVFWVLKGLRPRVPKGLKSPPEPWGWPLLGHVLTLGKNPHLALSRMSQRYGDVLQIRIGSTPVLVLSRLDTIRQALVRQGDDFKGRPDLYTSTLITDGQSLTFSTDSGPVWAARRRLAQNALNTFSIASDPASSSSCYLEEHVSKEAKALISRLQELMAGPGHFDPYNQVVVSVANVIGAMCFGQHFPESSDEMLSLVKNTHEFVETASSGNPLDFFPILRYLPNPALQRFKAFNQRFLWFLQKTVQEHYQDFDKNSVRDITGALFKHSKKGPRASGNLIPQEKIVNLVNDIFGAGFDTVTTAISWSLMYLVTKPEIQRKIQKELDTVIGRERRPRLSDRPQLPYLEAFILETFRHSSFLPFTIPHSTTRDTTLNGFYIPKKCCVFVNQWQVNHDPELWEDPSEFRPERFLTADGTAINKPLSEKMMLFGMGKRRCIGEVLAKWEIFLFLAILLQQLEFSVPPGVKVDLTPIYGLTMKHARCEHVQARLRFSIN
Procedure: The five major CYP isozymes and their respective probe substrates were: CYP-1A2 (phenacetin, 30 μM), CYP-2C9 (toluenesulfonylurea, 100 μM), CYP-2C19 40 μM), CYP-2D6 (dextromethorphan, 5 μM) and CYP-3A4 (midazolam, 1 μM). All probes were used close to or below their KMS concentrations. The mixture (200 μL) was incubated in a 37° C. constant temperature water bath, containing HLM (0.2 mg/mL), phosphate buffer (100 mM, pH 7.4), NADPH […], test compound (10 μM) and the respective CYP probe substrate. Before the reaction with NADPH, the mixture was pre-incubated for 10 minutes to undergo inhibitor-enzyme interaction. After a specific period of time (10 minutes for CYP-1A2, 2D6 and 3A4; 30 minutes for CYP-2C9 and 2C19), the reaction was quenched by addition to 100 μL solution of appropriate amount of cold acetonitrile. Reaction system was centrifuged and injected into the LC-MS/MS to quantify the concentration of specific metabolite formed from the substrate and the CYP enzyme. Each test compound was tested at least three times independently. […]
Before the start of the reaction with NADPH, the above mixture can be pre-incubated for about 10 minutes to allow inhibitor-enzyme interactions. […] The quenched mixture can be centrifuged, and aliquots of the mixture can then be analyzed by LC-MS/MS to quantify the concentrations of specific metabolic products for each CYP isozyme. […]

CYP2C9 = biological target: T2, CYP2C9 (Homo sapiens, UniProt P11712); assay: CYP liver enzyme inhibition experiment, CYP-2C9; format: in vitro ADME; conditions: human liver microsomes
T2 construct: containing HLM (0.2 mg/mL), phosphate buffer (100 mM, pH 7.4); from tissue; host or cells: liver microsomes (HLM)
Procedure: The five major CYP isozymes and their respective probe substrates were: CYP-1A2 (phenacetin, 30 μM), CYP-2C9 (toluenesulfonylurea, 100 μM), CYP-2C19 40 μM), CYP-2D6 (dextromethorphan, 5 μM) and CYP-3A4 (midazolam, 1 μM). All probes were used close to or below their KMS concentrations. The mixture (200 μL) was incubated in a 37° C. constant temperature water bath, containing HLM (0.2 mg/mL), phosphate buffer (100 mM, pH 7.4), NADPH […], test compound (10 μM) and the respective CYP probe substrate. Before the reaction with NADPH, the mixture was pre-incubated for 10 minutes to undergo inhibitor-enzyme interaction. After a specific period of time (10 minutes for CYP-1A2, 2D6 and 3A4; 30 minutes for CYP-2C9 and 2C19), the reaction was quenched by addition to 100 μL solution of appropriate amount of cold acetonitrile. Reaction system was centrifuged and injected into the LC-MS/MS to quantify the concentration of specific metabolite formed from the substrate and the CYP enzyme. Each test compound was tested at least three times independently.
Five major CYP isozymes and their corresponding substrates are: CYP-1A2 (phenacetin, 30 μM), […], CYP2C19 (S-mephenytoin, 40 μM), CYP2D6 (dextromethorphan, 5 μM), and CYP3A4 (midazolam, 1 μM), respectively. All probe substrates were used at or lower than their KMS concentrations.
A mixture (200 μL) can be incubated at 37° C. This mixture can comprise HLM (0.2 mg/mL), phosphate buffer (100 mM, pH at about 7.4), nicotinamide adenine dinucleotide phosphate (NADPH) […], a testing compound (compound B or compound B1), and the individual substrate for the CYP isozyme tested.
Before the start of the reaction with NADPH, the above mixture can be pre-incubated for about 10 minutes to allow inhibitor-enzyme interactions. Then at specific time points (10 minutes time point for CYP-1A2, 2D6 and 3A4; 30 minutes time point for CYP-2C9 and 2C19), the reaction can be quenched by the addition of about 100 μL cold acetonitrile. The quenched mixture can be centrifuged, and aliquots of the mixture can then be analyzed by LC-MS/MS to quantify the concentrations of specific metabolic products for each CYP isozyme. For each testing compound, at least three independent assays can be completed.

[1] = tested on: primary medulloblastoma of Patched (PTCH)+/−, p53−/− mice; assay: Mouse tumor model (tumor inhibition); format: in vivo, SCID mice; conditions: 100 mg/kg/day, 14 days
Procedure: Tumor cells from the primary medulloblastoma of Patched (PTCH)+/−, p53−/− mice were injected subcutaneously into the right side of SCID mice. About 7 days after implantation, treatments were started when the tumor volume grew to an average of 200 mm^3. Animals were randomly divided into blank group, compound B administration group and compound B1 administration group. The doses of compound B1 and racemic compound B were 100 mg/kg/day. Tumor volume […] and body weight (g) were recorded every other day. After 14 days of administration, mice were sacrificed and the tumors were removed.
Primary medulloblastoma (5×10^6) from Patched(PTCH)+/−, p53−/− mice can be […] injected into the right sides of SCID mice. Seven days after the injection, treatment with drugs can start when the average size of tumors reaches 200 mm^3. Subjects can be randomly assigned to the control group, the compound B-treatment group and the compound B1-treatment group. Compounds B and B1 can be administered at dosages of about 100 mg/kg/day. The tumor volume and the body weights of the subjects can be measured and recorded every other day. On the 14th day after the drug administration, the subjects can be sacrificed and their tumors can be removed.

[2] = pH 7.4, probe tolbutamide (tolbutamide hydroxylation), Table 6, HLM, read-out: CYP-2C9 Inhibition (%)
[3] = pH 7.4, probe toluenesulfonylurea (tolbutamide), 100 µM, at 10 μM, read-out: inhibitory activity against CYP-2C9
[4] = pH 7.4, probe toluenesulfonylurea (tolbutamide), 100 µM, at a concentration of 10M, read-out: inhibitory rate to CYP-2C9
[5] = pH 7.4, probe toluenesulfonylurea (tolbutamide), 100 µM, test compound 10 μM, HLM, read-out: CYP-2C9 Inhibitory rate (%)

T2 sequence (P11712 whole entry): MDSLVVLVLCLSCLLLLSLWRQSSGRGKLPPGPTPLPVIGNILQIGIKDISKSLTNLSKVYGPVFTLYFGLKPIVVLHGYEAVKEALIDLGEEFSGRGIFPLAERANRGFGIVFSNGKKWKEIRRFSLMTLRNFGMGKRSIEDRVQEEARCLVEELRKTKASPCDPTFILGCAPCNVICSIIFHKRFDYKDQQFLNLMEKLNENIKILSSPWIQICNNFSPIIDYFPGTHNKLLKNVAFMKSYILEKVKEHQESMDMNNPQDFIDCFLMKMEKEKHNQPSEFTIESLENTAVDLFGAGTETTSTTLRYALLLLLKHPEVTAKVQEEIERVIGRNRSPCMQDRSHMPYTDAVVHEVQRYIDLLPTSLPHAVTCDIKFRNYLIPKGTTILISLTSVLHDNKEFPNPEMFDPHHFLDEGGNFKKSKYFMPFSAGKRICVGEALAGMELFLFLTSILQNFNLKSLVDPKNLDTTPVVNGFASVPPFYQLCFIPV

inhibition at 10 min, 10 µM (CYP1A2) [%]	inhibition at 30 min, 10 µM (CYP2C9; [2]) [%]	inhibition at 30 min, 10 µM (CYP2C9; [3]) [%]	inhibition at 30 min, 10 µM (CYP2C9; [4]) [%]	inhibition at 30 min, 10 µM (CYP2C9; [5]) [%]	SMILES	effect on tumor volume (in words) [1]	effect on tumor volume (in words) ([1]; listed as racemic compound)	effect on tumor volume (in words) ([1]; listed as chiral compound)
21 ± 1.3	52 ± 5.2	~52	> 50	52 ± 5.2	Cc1cnc(-c2cc(N3CCc4nc(N5CCC(O)CC5)ncc4C3C)ncc2Cl)c(C)c1 (racemic) [B]	stop the tumor from growing; also recorded: only stopped the growth of tumor; also recorded: may stop the tumors from growing	only stop the tumor growth	
22 ± 15	26 ± 6	~26	26	26 ± 6	Cc1cnc(-c2cc(N3CCc4nc(N5CCC(O)CC5)ncc4[C@H]3C)ncc2Cl)c(C)c1 [Compound B1, (R)-1-(6-(5′-chloro-3,5-dimethyl-[2,4′-bipyridin]-2′-yl)-5-methyl-5,6,7,8-tetrahydropyrido[4,3-d]pyrimidin-2-yl)piperidin-4-ol]	reduce the tumor volume to almost disappear; also recorded: may decrease the tumor volume		shrink the tumor volume to almost undetectable
